Data on 12 compounds can be found in ChEMBL document CHEMBL1201862, “PubChem BioAssay data set” (2004).

SMILES strings stand for the structures.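 Interpolation was linear, between the two tested concentrations surrounding the appropriate level; five concentrations were tested over 48 hours in 96-well plates. Here, GI50 denotes the concentration required for 50% inhibition of growth.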 Activity calls are given as the source filed them. Cut-off read from the data, not from the text of the source: active = GI50 up to about 1.1 µM and inactive = higher.

Common to all, as to test: DTP human tumour cell line panel, 48 h
The subject of assay [1] is CCRF-CEM.
Assay [2] concerns NCI/ADR-RES.
Assay [3] deals with T47D.
Assay [4] concerns SK-MEL-5.
For assay [5], the system named is U-251.
The subject of assay [6] is SR.
Assay [7] concerns Malme-3M.
In assay [8] the test system is KM12.
Assay [9] relates to UACC-62.
Assay [10] relates to HCT-116.
Assay [11] relates to MOLT-4.
For assay [12], the system named is DU-145.
Assay [13] concerns MCF7.
Assay [14] deals with SF-268.
For assay [15], the system named is UO-31.
Assay [16] relates to A498.
Assay [17] relates to NCI-H460.
Assay [18] relates to HL-60.
Assay [19] has as its system SW-620.
Assay [20] relates to BT-549.

Take `O=C1CCC[C@@H]2NC[C@@H](c3ccc4c(c3)OCO4)[C@H]12`: the GI50 in assay [1], in assay [2], in assay [3], in assay [4], in assay [5] and in assay [6] was > 25 µM (inactive) in each case. For the same compound, the GI50 in [7], in [8], in assay [9], in assay [10], in [11] and in [12] was > 25 µM (inactive) throughout. In addition, the GI50 in assay [13], in assay [14], in assay [15], in [16], in assay [17] and in [18] was > 25 µM (inactive) in each case.
As for `CS(=O)(=O)OCCN(CCOS(C)(=O)=O)c1ccc(/C=N/c2ccc(-c3csc(Cc4ccccc4)n3)cc2)c(Cl)c1`, the GI50 in assay [1] was 10.1 µM (inactive); in [2] it was 23.2 µM (inactive); in [3] it was 30.8 µM (inactive); in assay [4], 16.4 µM (inactive); in assay [5], 28.2 µM (inactive); in assay [6], 23.7 µM (inactive). The GI50 in [7] was 37.1 µM (inactive); in assay [8] it was 28.6 µM (inactive); in assay [9] it was 6.5 µM (inactive); in assay [10] it was 19.5 µM (inactive); in [11] it was 17.2 µM (inactive); in assay [12] it was 30.4 µM (inactive). Further, the GI50 was 2.65 µM (inactive) in assay [13]; 27.4 µM (inactive) in assay [14]; 26.4 µM (inactive) in assay [15]; 0.102 µM (active) in [16]; 0.387 µM (active) in assay [17]; 31.8 µM (inactive) in assay [19]. Also, the GI50 in [18] was 11.1 µM (inactive).
Take `CCCCCN1CCN(c2ncccn2)CC1`: the GI50 in assay [1], in assay [2], in assay [3], in assay [4], in assay [5] and in [6] was > 100 µM (inactive) throughout. Moreover, the GI50 in [7], in assay [8], in assay [9], in assay [10], in assay [12] and in assay [13] was > 100 µM (inactive) each time. In addition, the GI50 in assay [14], in [15], in [16], in assay [19] and in assay [18] was > 100 µM (inactive) throughout.
On to `CSc1nc2c(N)ncnc2n1C`, for which the GI50 in [1], in [2], in [3], in [4], in assay [5] and in assay [7] was > 100 µM (inactive) throughout. Moreover, the GI50 in assay [8], in [9], in [10], in assay [11], in [12] and in assay [13] was > 100 µM (inactive) each time. For the same compound, the GI50 in assay [14], in assay [15], in assay [16], in assay [17] and in assay [19] was > 100 µM (inactive) throughout.
On to `O=[N+]([O-])c1ccc(Cl)c(C2SCc3nc4ccccc4n32)c1` (configuration not stated), for which the GI50 in assay [1] was 28 µM (inactive); in assay [4], 16.5 µM (inactive); in assay [5], 41.8 µM (inactive); in assay [6], 32.1 µM (inactive); in assay [7], 44.1 µM (inactive); in assay [8], 29 µM (inactive). The GI50 in [9] was 39.9 µM (inactive); in [10], 31.6 µM (inactive); in [11] it was 24.2 µM (inactive); in [14], 29.8 µM (inactive); in assay [15], 17.3 µM (inactive); in assay [16], 32.3 µM (inactive). The results for the GI50 in assay [17], in assay [19] and in assay [18] were 28.7 µM (inactive), 35 µM (inactive) and 23.2 µM (inactive), respectively.
Consider `O=C(NC1CCCC1=O)c1ccccc1` (configuration not stated), for which the GI50 in assay [1], in assay [4], in assay [5], in assay [6], in [7] and in assay [8] was > 100 µM (inactive) each time. The GI50 in [9] was > 100 µM (inactive); in assay [10] it was > 100 µM (inactive); in assay [11], > 100 µM (inactive); in [14], > 100 µM (inactive); in assay [15], > 100 µM (inactive); in assay [16], 13.7 µM (inactive). Moreover, the GI50 in assay [17], in assay [19] and in [18] was > 100 µM (inactive) throughout.
As for `Cc1ccc(N2C(=O)/C(=C/c3ccc(N(CCC#N)CCC#N)cc3C)N=C2c2cc([N+](=O)[O-])ccc2Cl)cc1`, the GI50 in [1] was > 100 µM (inactive); in assay [4] it was > 100 µM (inactive); in [5], > 100 µM (inactive); in [6] it was 58.2 µM (inactive); in [7], > 100 µM (inactive); in assay [8], > 100 µM (inactive). The GI50 is > 100 µM (inactive) in [9]; > 100 µM (inactive) in assay [10]; 91.2 µM (inactive) in [11]; > 100 µM (inactive) in assay [14]; > 100 µM (inactive) in assay [15]; > 100 µM (inactive) in assay [16]. Besides, the GI50 in [17], in [19] and in assay [18] was > 100 µM (inactive) each time.
`O=C(Nc1ccccc1)C(=O)C(C(=O)c1ccccc1)C(c1ccccc1)c1ccccc1` (configuration not stated): the GI50 in [1], in assay [3], in assay [4], in [6], in [7] and in [9] was > 10 µM (inactive) in each case. Besides, the GI50 in assay [11], in assay [12], in assay [13], in assay [14], in assay [19] and in [18] was > 10 µM (inactive) throughout.
Turning to `N=C(N)SCc1ccc2c(c1)S(=O)(=O)c1ccccc1O2`, the GI50 in [1] is 10.5 µM (inactive); in assay [2], 39.8 µM (inactive); in assay [3], 22.5 µM (inactive); in [5], 18.1 µM (inactive); in [6], 23 µM (inactive); in assay [8], 16.9 µM (inactive). The GI50 is 15.8 µM (inactive) in assay [9]; 22 µM (inactive) in assay [10]; 19.1 µM (inactive) in [11]; 32.4 µM (inactive) in [12]; 14.5 µM (inactive) in assay [13]; 33.7 µM (inactive) in [14]. The GI50 in assay [15] is 15.2 µM (inactive); in [16], 17.5 µM (inactive); in [17], 19.6 µM (inactive); in [19] it was 17.8 µM (inactive); in assay [18], 14.9 µM (inactive).
Turning to `CNC(=O)C1CCc2nnc(-c3ccccc3)n21` (configuration not stated), the GI50 in [1], in assay [4], in assay [5], in assay [6], in [7] and in assay [8] was > 100 µM (inactive) throughout. In addition, the GI50 in assay [9], in assay [10], in assay [11], in [14], in assay [15] and in assay [16] was > 100 µM (inactive) throughout. Besides, the GI50 in [17], in [19] and in assay [18] was > 100 µM (inactive) in each case.
With `S=C1CNC(=S)CN1`, the GI50 in assay [1], in assay [4], in assay [5], in assay [6], in assay [7] and in [8] was > 100 µM (inactive) each time. The GI50 in assay [9], in assay [10], in assay [11], in assay [14], in assay [15] and in assay [16] was > 100 µM (inactive) throughout. In addition, the GI50 in assay [17], in assay [19] and in [18] was > 100 µM (inactive) in each case.
In the case of `Cc1ccc2nc(CN3CCCC(O)C3)cc(=O)n2c1` (configuration not stated), the GI50 in assay [1], in assay [2], in [5], in [6], in [7] and in [8] was > 100 µM (inactive) in each case. In addition, the GI50 in assay [9], in assay [10], in [11], in [12], in [13] and in [14] was > 100 µM (inactive) throughout. In addition, the GI50 in assay [15], in assay [20], in assay [17], in assay [19] and in [18] was > 100 µM (inactive) throughout.

As usually defined, the GI50 is the concentration at which growth is held to half of that of the control.
